Measurements taken from patent publication US20030125285A1, “Method of examining efficacy of therapy with nucleic acid” (priority 2001, published 2003).

Tests used:
[1] = tested on: A431 cancer cells; details: Cancer Research, 59, pp. 4325-4333 (1999); cited from earlier work
[2] = tested on: SW620 cancer cells; details: Cancer Research, 59, pp. 4325-4333 (1999); cited from earlier work
[3] = target: T1, protein of SEQ ID NO: 3 (human TRAL) (Homo sapiens, UniProt P14625); experiment: Detection of binding of radio-labeled poly(I)•poly(C) to phage cDNA library proteins on nitrocellulose membrane; details: [32P]-poly(I)•poly(C) 1 ng/ml-1 μg/ml, chain length 100-500 bp, 42° C., 5-6 hours
T1 construct: made in house
Method: (§1) Detection of Binding Ability to Proteins of SEQ ID NO: 1-3
(§2) (1) Each protein was synthesized by plating phages containing cDNA on a petri dish using human HeLa 5′-STRETCH PLUS cDNA library.
(§3) (2) The synthesized protein was transferred to nitrocellulose membrane.
(§4) (3) To the nitrocellulose membrane was added the following test solution containing poly(I)•poly(C) (chain length 100-500 bp) radio-labeled with [γ-^32P]ATP, and subjected to hybridization at 42° C., for 5-6 hours.
(§5) 1 ng/ml-1 μg/ml [^32P]-poly(I)•poly(C)
(§6) The nucleotide sequence of cDNA corresponding to the screened protein was determined with a sequencer to identify the screened protein.

[4] = target: T2, protein of SEQ ID NO: 1 (AK002169) (Homo sapiens, UniProt Q96SI9); experiment: as above; details: [32P]-poly(I)•poly(C) 1 ng/ml-1 μg/ml, chain length 100-500 bp, 42° C., 5-6 hours
T2 construct: made in house
Method: as §1, §2, §3, §4, §5, §6

[5] = target: T3, protein of SEQ ID NO: 2 (human TAR RNA binding protein 2, TRBP2) (Homo sapiens, UniProt Q15633); experiment: as above; details: [32P]-poly(I)•poly(C) 1 ng/ml-1 μg/ml, chain length 100-500 bp, 42° C., 5-6 hours
T3 construct: made in house
T3 sequence (Q15633 1-366): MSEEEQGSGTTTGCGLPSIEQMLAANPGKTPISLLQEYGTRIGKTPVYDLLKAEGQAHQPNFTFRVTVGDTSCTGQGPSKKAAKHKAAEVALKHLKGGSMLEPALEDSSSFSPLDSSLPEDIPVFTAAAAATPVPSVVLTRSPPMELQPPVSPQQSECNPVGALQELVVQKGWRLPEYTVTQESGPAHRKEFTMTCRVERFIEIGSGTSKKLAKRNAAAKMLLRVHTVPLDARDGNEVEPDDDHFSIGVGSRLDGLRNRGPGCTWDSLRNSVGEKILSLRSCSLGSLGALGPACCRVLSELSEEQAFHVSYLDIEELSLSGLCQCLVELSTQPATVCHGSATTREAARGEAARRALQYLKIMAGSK
Method: as §1, §2, §3, §4, §5, §6

[6] = tested on: HeLa cancer cells; details: Cancer Research, 59, pp. 4325-4333 (1999); cited from earlier work
[7] = tested on: HeLaS3 cancer cells; details: Cancer Research, 59, pp. 4325-4333 (1999); cited from earlier work

T2 sequence (Q96SI9 183-672): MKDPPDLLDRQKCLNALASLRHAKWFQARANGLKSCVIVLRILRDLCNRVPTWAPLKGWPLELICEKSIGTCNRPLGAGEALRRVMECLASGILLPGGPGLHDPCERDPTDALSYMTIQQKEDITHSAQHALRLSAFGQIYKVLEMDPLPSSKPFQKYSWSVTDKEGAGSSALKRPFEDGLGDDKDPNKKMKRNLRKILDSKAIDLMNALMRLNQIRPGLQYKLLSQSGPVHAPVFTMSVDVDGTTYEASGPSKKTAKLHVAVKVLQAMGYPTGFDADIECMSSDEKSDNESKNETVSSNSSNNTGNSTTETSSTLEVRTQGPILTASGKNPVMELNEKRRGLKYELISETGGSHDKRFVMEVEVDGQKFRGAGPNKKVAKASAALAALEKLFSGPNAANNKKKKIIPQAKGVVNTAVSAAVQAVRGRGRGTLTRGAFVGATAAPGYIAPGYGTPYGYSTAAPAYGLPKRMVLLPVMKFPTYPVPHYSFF
T1 sequence (P14625 22-803): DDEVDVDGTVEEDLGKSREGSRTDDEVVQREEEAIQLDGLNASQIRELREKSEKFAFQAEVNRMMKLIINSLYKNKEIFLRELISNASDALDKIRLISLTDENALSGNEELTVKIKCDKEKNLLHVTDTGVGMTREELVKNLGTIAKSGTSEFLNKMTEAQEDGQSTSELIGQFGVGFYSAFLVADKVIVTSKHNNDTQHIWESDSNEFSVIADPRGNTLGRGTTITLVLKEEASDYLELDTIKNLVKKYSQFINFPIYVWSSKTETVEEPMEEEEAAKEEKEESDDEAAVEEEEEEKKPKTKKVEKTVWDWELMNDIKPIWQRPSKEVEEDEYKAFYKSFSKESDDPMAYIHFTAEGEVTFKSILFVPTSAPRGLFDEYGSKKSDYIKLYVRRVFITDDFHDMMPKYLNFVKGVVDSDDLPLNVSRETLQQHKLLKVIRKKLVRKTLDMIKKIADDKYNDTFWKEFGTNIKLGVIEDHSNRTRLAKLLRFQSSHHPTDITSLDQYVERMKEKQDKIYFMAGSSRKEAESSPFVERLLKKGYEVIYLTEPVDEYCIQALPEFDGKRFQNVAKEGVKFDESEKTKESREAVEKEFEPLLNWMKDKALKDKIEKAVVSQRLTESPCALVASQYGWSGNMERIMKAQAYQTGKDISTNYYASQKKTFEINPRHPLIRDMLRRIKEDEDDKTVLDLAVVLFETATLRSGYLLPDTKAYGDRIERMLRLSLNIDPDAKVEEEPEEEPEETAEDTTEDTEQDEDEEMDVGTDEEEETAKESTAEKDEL

binding to protein of SEQ ID NO: 3 [3]: bound | binding to protein of SEQ ID NO: 1 [4]: bound | binding to protein of SEQ ID NO: 2 [5]: bound
Substance: polyinosinic acid-polycytidylic acid [poly(I)•poly(C)]
efficacy against cancer cells [1]: efficacious | efficacy against cancer cells [2]: inefficacious | efficacy against cancer cells [6]: inefficacious | efficacy against cancer cells [7]: efficacious
